Results reported in US20240381872A1, “SUBSTITUTED 2,3-DIHYDRO[1,3]THIAZOLO[4,5-B]PYRIDINES, SALTS THEREOF AND THEIR USE AS HERBICIDALLY ACTIVE SUBSTANCES” (BAYER AKTIENGESELLSCHAFT, priority 2021, published 2024).

How the values were obtained:
Type in all cases: in vivo
[1] = tested on: Abutilon theophrasti (ABUTH); experiment: Herbicidal pre-emergence action, section A (Table A1); conditions: Abutilon theophrasti, pre-emergence, 504 h; application rate 1280 g/ha; visual grading after ca. 3 weeks vs untreated controls; read-out: pre-emergence activity against ABUTH in %
Procedure, shortened: (§1)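 Visual scoring at approximately 3 weeks, relative to untreated pots, gave percent effect after compounds in WP or EC form were sprayed onto covering soil of sown seeds (sandy loam) in water with 0.5% additive at 600 l/ha, then kept in greenhouse.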

[2] = tested on: Echinochloa crus-galli (ECHCG); experiment: Herbicidal post-emergence action, section B (Table B3); conditions: rated visually after about 3 weeks
Procedure, shortened: (§2)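 Post-emergence greenhouse test. One-leaf stage; WP or EC plus 0.5% additive; 600 liters per hectare water volume; visual % rating at ~3 weeks relative to untreated plants.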

[3] = tested on: Triticum aestivum (TRZAS); experiment: Pre-emergence effects on crop plants, section D (Table D2); conditions: visual grading after ca. 3 weeks
Procedure, shortened: (§3)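 Read-out: visual percent injury versus untreated controls at ca. 3 weeks (0% as control, 100% dead). Treatment: aqueous WP/EC suspension or emulsion with 0.5% additive, 600 l/ha, on soil covering seeds in sandy loam, at 320 g/ha or below, under optimum greenhouse conditions.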

Veronica persica (VERPE) = experiment: Herbicidal pre-emergence action, section A (Table A10); conditions: for pest or weed control at 320 g/ha: Veronica persica, 504 h, application rate 320 g/ha, read-out: pre-emergence activity against VERPE in %
Procedure, shortened: as §1

Zea mays (ZEAMX) [4] = experiment: Pre-emergence effects on crop plants, section D (Table D1); conditions: visual grading after ca. 3 weeks
Procedure, shortened: as §3

Setaria viridis (SETVI) [5] = experiment: Herbicidal pre-emergence action, section C (Table C8); conditions: visual grading after ca. 3 weeks; for pest or weed control at 80 g/ha / pest or weed control at 320 g/ha: Setaria viridis, pre-emergence, 504 h, read-out: pre-emergence activity against SETVI in %; for pest or weed control at 320 g/ha: application rate 320 g/ha
Procedure, shortened: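 Pre-emergence greenhouse test: visual percent damage scored about 3 weeks after treatment, relative to untreated pots (100% = dead, 0% = no effect). Formulated compounds (WP or EC, plus 0.5% additive) were applied in 600 l water/ha to the covering soil over seeds sown in sandy loam.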

[6] = tested on: Echinochloa crus-galli (ECHCG); experiment: Herbicidal pre-emergence action, section A (Table A3); conditions: application rate 320 g/ha, visual grading after ca. 3 weeks vs untreated controls; for pest or weed control at 320 g/ha: Echinochloa crus-galli, pre-emergence, 504 h, read-out: pre-emergence activity against ECHCG in %
Procedure, shortened: as §1

Setaria viridis (SETVI) [7] = experiment: Herbicidal pre-emergence action, section A (Table A8)
Procedure, shortened: as §1

Zea mays (ZEAMX) [8] = experiment: Post-emergence effects on crop plants, section F (Table F1); conditions: for percent crop plant damage (phytotoxicity) on Zea mays, post-emergence at 320 g/ha: 504 h, application rate 320 g/ha, read-out: post-emergence activity against ZEAMX in %
Procedure, shortened: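 Percent damage was rated by eye roughly 3 weeks after treatment against untreated plants, where 0% = as control and 100% = died off. Spraying used WP or EC formulations plus 0.5% additive at 600 l water/ha, with rates of 320 g/ha or less. Plants were at the single-leaf stage, sown 2-3 weeks earlier in sandy loam under greenhouse conditions.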

Oryza sativa (ORYZA) = experiment: Post-emergence effects on crop plants, section F (Table F3); conditions: for percent crop plant damage at 320 g/ha / percent crop plant damage at 80 g/ha: Oryza sativa, 504 h, read-out: post-emergence activity against ORYZA in %; for percent crop plant damage at 80 g/ha: application rate 80 g/ha
Text: Seeds of mono- and dicotyledonous weed plants and crop plants were sown, in plastic or organic planting pots, in sandy loam, covered with soil and grown in a greenhouse under controlled growth conditions. 2 to 3 weeks after sowing, the test plants were sprayed in the single-leaf stage. The compounds according to the invention, formulated in form of wettable powders (WP) or as emulsifiable concentrates (EC), were sprayed onto the green plant parts as aqueous suspension or emulsion, with the addition of 0.5% of an additive, at an application rate of 600 l of water/ha (converted). The test plants were placed in the greenhouse for ca. 3 weeks under optimum growth conditions, and then the effect of the preparations was assessed visually in comparison with untreated controls (herbicidal effect in percent (%): 100% effect=plants have died off, 0% effect=as control plants). Tables F1 to F4 below show the effects of selected compounds of the general formula (I) according to Table 1 on various crop plants and an application rate corresponding to 320 g/ha or below obtained by the experimental procedure mentioned above.

Lolium rigidum (LOLRI) = experiment: Herbicidal pre-emergence action, section C (Table C5); conditions: visual grading after ca. 3 weeks
Text: Seeds of mono- and dicotyledonous weed plants and crop plants were sown, in plastic or organic planting pots, in sandy loam and covered with soil. The compounds according to the invention, formulated in the form of wettable powders (WP) or as emulsifiable concentrates (EC), were applied to the surface of the covering soil as aqueous suspension or emulsion, with the addition of 0.5% of an additive, at an application rate of 600 l of water/ha (converted). Following treatment, the pots were placed in a greenhouse and kept under optimum growth conditions for the test plants. The visual grading of the damage to the test plants was carried out after ca. 3 weeks in comparison to untreated controls (herbicidal effect in percent (%): 100% effect=plants have died off, 0% effect=as control plants).

[9] = tested on: Digitaria sanguinalis (DIGSA); experiment: Herbicidal post-emergence action, section B (Table B12); conditions: application rate 1280 g/ha, visual rating about 3 weeks after treatment vs untreated controls
Procedure, shortened: as §2

[10] = Setaria viridis, 504 h, application rate 320 g/ha, read-out: pre-emergence activity against SETVI in %
[11] = Lolium rigidum, pre-emergence, 504 h, application rate 320 g/ha, read-out: pre-emergence activity against LOLRI in %

SMILES	pest or weed control at 1280 g/ha [1]	pre-emergence activity against TRZAS in % (crop plant damage) ([3]; application rate 320 g/ha)	pest or weed control at 320 g/ha (Veronica persica (VERPE))	pre-emergence activity against ZEAMX in % (crop plant damage) (Zea mays (ZEAMX) [4]; application rate 80 g/ha)	pest or weed control at 80 g/ha (Setaria viridis (SETVI) [5]; application rate 80 g/ha)	pest or weed control at 320 g/ha [6]	pest or weed control at 320 g/ha (Setaria viridis (SETVI) [7]; [10])	percent crop plant damage (phytotoxicity) on Zea mays, post-emergence at 320 g/ha (Zea mays (ZEAMX) [8])	percent crop plant damage at 320 g/ha (Oryza sativa (ORYZA); application rate 320 g/ha)	pre-emergence activity against ZEAMX in % (crop plant damage) (Zea mays (ZEAMX) [4]; application rate 320 g/ha)	pest or weed control at 320 g/ha (Lolium rigidum (LOLRI); [11])	pest or weed control at 320 g/ha (Setaria viridis (SETVI) [5])	pre-emergence activity against TRZAS in % (crop plant damage) ([3]; application rate 80 g/ha)	percent crop plant damage at 80 g/ha (Oryza sativa (ORYZA))	further results
Clc1ccccc1-c1nc2c(cc1Br)SCN2 [Example I-041, 6-bromo-5-(2-chlorophenyl)-2,3-dihydro[1,3]thiazolo[4,5-b]pyridine]	90%	20%	90%	0%	90%	100%	100%	20%	0%	–	–	–	–	–	pest or weed control at 320 g/ha ([2]; Echinochloa crus-galli, 504 h, application rate 320 g/ha, read-out: post-emergence activity against ECHCG in %): 100%
CCc1ccccc1-c1nc2c(cc1C)[S+]([O-])CN2 (stereo not shown) [Example I-047]	–	10%	–	–	–	100%	–	0%	0%	20%	100%	100%	–	–	pest or weed control at 1280 g/ha ([2]; Echinochloa crus-galli, 504 h, application rate 1280 g/ha, read-out: post-emergence activity against ECHCG in %): 90%; pest or weed control at 1280 g/ha (Setaria viridis (SETVI) [7]; Setaria viridis, 504 h, application rate 1280 g/ha, read-out: pre-emergence activity against SETVI in %): 100%
Cc1cc2c(nc1-c1ccccc1Cl)NCS2 [Example I-049, 5-(2-chlorophenyl)-6-methyl-2,3-dihydro[1,3]thiazolo[4,5-b]pyridine]	–	–	–	10%	100%	–	–	–	–	–	–	–	20%	20%	pest or weed control at 80 g/ha (Lolium rigidum (LOLRI); Lolium rigidum, pre-emergence, 504 h, application rate 80 g/ha, read-out: pre-emergence activity against LOLRI in %): 100%
CC(C)C(=O)N1C[S+]([O-])c2cc(Br)c(-c3ccccc3)nc21 (stereo not shown) [Example I-067]	–	–	–	–	–	–	–	0%	0%	20%	80%	100%	10%	–	–
CCS(=O)(=O)N1C[S+]([O-])c2cc(C)c(-c3ccccc3C)nc21 (stereo not shown) [Example I-074]	90%	–	90%	0%	–	100%	100%	–	–	–	–	100%	0%	0%	pest or weed control at 1280 g/ha ([9]; Digitaria sanguinalis, post-emergence, 504 h, read-out: post-emergence activity against DIGSA in %): 90%
Cc1cc2c(nc1-c1ccccc1F)N(C(=O)C1(C)CC(Cl)=NO1)CS2 (stereo not shown) [Example I-083]	–	–	–	10%	–	–	–	–	–	–	–	–	–	–	post-emergence activity against ECHCG in % ([2]; application rate 1280 g/ha): 90%; pre-emergence activity against VERPE in % (Veronica persica (VERPE); application rate 1280 g/ha): 90%; pre-emergence activity against LOLRI in % (Lolium rigidum (LOLRI); application rate 320 g/ha): 80%; pre-emergence activity against SETVI in % (Setaria viridis (SETVI) [5]; application rate 80 g/ha): 100%; pre-emergence activity against ECHCG in % [6]: 100%; pre-emergence activity against SETVI in % (Setaria viridis (SETVI) [7]; application rate 320 g/ha): 100%; post-emergence activity against ZEAMX in % (Zea mays (ZEAMX) [8]; crop plant damage, application rate 80 g/ha): 10%; post-emergence activity against ORYZA in % (Oryza sativa (ORYZA); crop plant damage, application rate 320 g/ha): 10%; post-emergence activity against DIGSA in % [9]: 90%
